Source: EPA's ToxValDB 9.5
Values joined by “and” are separate entries in the source; they are usually repeats but may differ in a detail not shown here. Identical values can stand only once.

Tested on: Rattus norvegicus
Settings: oral
[1] = chronic, duration: 6 months, drinking water, M/F, Sprague-Dawley, Morris water maze (escape time, acquisition, day 6)
[2] = chronic, duration: 6 months, drinking water, M, Wistar, open field (entries to neighboring grids, day 1) + Y-maze (correct responses, day 9)
[3] = chronic, duration: 6 months, drinking water, M, Wistar, open field (standing attempts, day 1) + open field (standing attempts, day 9) + open field (time in central grid, day 1) + Y-maze (correct …
[4] = developmental, drinking water, M/F, Wistar, generation: F1, F1: active avoidance (shuttle box, conditioned avoidance response, day 2)
[5] = developmental, drinking water, M/F, Wistar, generation: F1, F1: maze test (latency to complete, day 1) + F1: maze test (latency to complete, day 5) + F1: maze test (number entries into blind alleys, …
[6] = developmental, drinking water, M, Wistar, generation: F1, F1: elevated plus maze (open arm entries) + F1: elevated plus maze (time in open arms) + F1: open field (grooming events) + F1: open field (…

In the case of `[F-].[Na+]` [Sodium fluoride], the LOEL (chronic, duration: 5 months, drinking water, Sprague-Dawley, Y-maze (number of correct responses over 10 trainings after 24 hours) + Y-maze (number of training runs to meet learning standard 90%)) is reported as 9.8 mg/kg-day, the LOEL (chronic, duration: 5 months, drinking water, Wistar, Y-maze (number of training runs to achieve 9 consecutive correct responses)) is reported as 6.91 mg/kg-day and the NOEL (chronic, duration: 6 months, drinking water, M/F, Sprague-Dawley, Morris water maze (escape time, acquisition, day 1)) is reported as 3.28 mg/kg-day and 3.27 mg/kg-day. It also gave an LOEL [1] of 3.27 mg/kg-day, an NOEL [1] of 0.33 mg/kg-day and an LOEL (chronic, duration: 6 months, drinking water, M/F, Sprague-Dawley, Morris water maze (escape time, acquisition, day 6) + Morris water maze (escape time, probe test, day 7)) of 0.33 mg/kg-day. For the same molecule, the LOEL (chronic, duration: 6 months, drinking water, M/F, Sprague-Dawley, Morris water maze (escape time, acquisition, day 6) + Morris water maze (time in platform area, probe test, day 7) + Morris water maze (time…) was 0.33 mg/kg-day, the NOEL (chronic, duration: 6 months, drinking water, M/F, Sprague-Dawley, Morris water maze (platform crossing, probe test, day 7)) was 3.27 mg/kg-day and the LOEL (chronic, duration: 6 months, drinking water, M/F, Sprague-Dawley, Morris water maze (time in platform area, probe test, day 7)) was 0.33 mg/kg-day. The LOEL (chronic, duration: 6 months, drinking water, M, Wistar, Y-maze (time to meet learning standard 90%)) was 3.34 mg/kg-day, the LOEL [2] was 10 mg/kg-day and the NOEL [2] was 6.67 mg/kg-day. It also gave an NOEL (chronic, duration: 6 months, drinking water, M, Wistar, open field (entries to neighboring grids, day 9) + open field (time in central grid, day 9)) of 10 mg/kg-day, an LOEL [3] of 6.67 mg/kg-day and an NOEL [3] of 3.34 mg/kg-day. For the same molecule, the LOEL (chronic, duration: 10 months, drinking water, M/F, Sprague-Dawley, Morris water maze (escape time, acquisition, average over days 1-6) + Morris water maze (platform crossing, probe test, day 7)) was 2.16 mg/L urine, the LOEL (chronic, duration: 14 weeks, drinking water, M, Wistar, sexual behavior (ejaculation frequency) + sexual behavior (ejaculation latency) + sexual behavior (intromission latency) + sexual behavior (…) was 6.67 mg/kg-day and the NOEL (chronic, duration: 115 days, drinking water, M, Wistar, open field (squares crossed)) was 6.67 mg/kg-day. The LOEL (chronic, duration: 115 days, drinking water, M, Wistar, plank walking (narrow, distance traveled) + plank walking (narrow, number of turns) + plank walking (wide, distance traveled) + plank …) was 6.67 mg/kg-day, the LOEL (developmental, diet, M/F, Sprague-Dawley, generation: F1, F1: Morris water maze (escape time, acquisition, day 6) + F1: Morris water maze (platform crossing, probe test, day 7) + F1: Morris water …) was 8.52 mg/L urine and the NOEL (developmental, drinking water, F, Wistar, generation: F1, F1: cliff avoidance + F1: ear opening + F1: negative geotaxis + F1: surface righting) was 0.54 mg/kg-day. For the same molecule, the LOEL (developmental, drinking water, F, Wistar, generation: F1, F1: elevated plus maze (open arm entries) + F1: elevated plus maze (time in open arms) + F1: open field (grooming events) + F1: open field (…) was 0.27 mg/kg-day, the NOEL (developmental, drinking water, F, Wistar, generation: F1, F1: elevated plus maze (open arm entries) + F1: open field (defecation) + F1: open field (grooming events) + F1: open field (rearing events…) was 0.54 mg/kg-day and the LOEL (developmental, drinking water, F, Wistar, generation: F1, F1: elevated plus maze (time in open arms)) was 0.27 mg/kg-day. It also gave an LOEL (developmental, drinking water, F, Wistar, generation: F1, F1: eye opening) of 0.27 mg/kg-day, an NOEL (developmental, drinking water, F, Wistar, generation: F1, F1: open field (defecation) + F1: open field (rearing events, 15 min)) of 0.54 mg/kg-day and an LOEL (developmental, drinking water, M/F, Sprague-Dawley, generation: F1, F1: Morris water maze (distance traveled to reach platform, acquisition, day 4) + F1: Morris water maze (latency to reach platform, …) of 1.63 mg/kg-day. For the same molecule, the LOEL (developmental, drinking water, M/F, Sprague-Dawley, generation: F1, F1: Morris water maze (escape time, acquisition, average over days 1-6) + F1: Morris water maze (platform crossing, probe test, day 7) + F1…) was 3.27 mg/kg-day, the NOEL (developmental, drinking water, M/F, Sprague-Dawley, generation: F1, F1: Morris water maze (swim speed to reach platform, acquisition, day 4)) was 6.53 mg/kg-day and the LOEL [4] was 4.35 mg/kg-day. The NOEL [4] was 2.18 mg/kg-day, the LOEL (developmental, drinking water, M/F, Wistar, generation: F1, F1: active avoidance (shuttle box, conditioned avoidance response, day 9) + F1: pain response (hot plate, latency period)) was 2.18 mg/kg-day and the LOEL (developmental, drinking water, M/F, Wistar, generation: F1, F1: elevated plus maze (open arm entries) + F1: elevated plus maze (time in open arms) + F1: mid-air righting (number of animals successful…) was 9.05 mg/kg-day. For the same molecule, the LOEL [5] was 4.87 mg/kg-day, the NOEL [5] was 2.33 mg/kg-day and the LOEL (developmental, drinking water, M/F, Wistar, generation: F1, F1: open field (rearing events, day 1) + F1: open field (rearing events, day 3)) was 2.33 mg/kg-day. The NOEL (developmental, drinking water, M/F, Wistar, generation: F1, F1: open field (squares crossed, day 1) + F1: open field (squares crossed, day 3)) was 4.87 mg/kg-day, the LOEL (developmental, drinking water, M/F, Wistar, generation: F1, F1: passive avoidance (step-down test, number of shocks, session 2, day 30) + F1: passive avoidance (step-down test, time to move from …) was 6.91 mg/kg-day and the NOEL (developmental, drinking water, M, Wistar, generation: F1, F1: cliff avoidance + F1: ear opening + F1: negative geotaxis + F1: surface righting) was 0.54 mg/kg-day. For the same molecule, the LOEL [6] was 0.27 mg/kg-day, the NOEL [6] was 0.54 mg/kg-day and the LOEL (developmental, drinking water, M, Wistar, generation: F1, F1: eye opening) was 0.27 mg/kg-day. It also gave an LOEL (developmental, drinking water, M, Wistar, generation: F1, F1: open field (defecation)) of 0.27 mg/kg-day, an NOEL (developmental, drinking water, M, Wistar, generation: F1, F1: open field (defecation) + F1: open field (rearing events, 15 min)) of 0.54 mg/kg-day and an LOEL (developmental, drinking water, M, Wistar, generation: F1, F1: sexual behavior (% of males ejaculating) + F1: sexual behavior (ejaculation frequency) + F1: sexual behavior (ejaculation latency) + F1…) of 3.12 mg/kg-day. The NOEL (developmental, drinking water, Wistar, generation: F1, F1: Y-maze (error number, 12 weeks) + F1: Y-maze (error number, 6 weeks) + F1: Y-maze (time to meet learning standard 90%, 6 weeks) + F1: Y-…) was 2.78 mg/L serum, the LOEL (developmental, drinking water, Wistar, generation: F1, F1: Y-maze (time to meet learning standard 90%, 12 weeks) + F1: Y-maze (total reaction time, 6 weeks)) was 2.78 mg/L serum and the NOEL (developmental, gavage, F, Wistar, generation: F1, F1: active avoidance (shuttle box, conditioned avoidance response, 1st block) + F1: active avoidance (shuttle box, conditioned avoidance …) was 2.26 mg/kg-day.
